Experiments:
[1] = test system: sAPPβ release, SH-SY5Y cells; test: sAPPβ release assay; format: cell-based; settings: 17 h incubation, MSD detection
Procedure: SH-SY5Y cells were cultured in DMEM/F-12 with Glutamax, 10% FCS and 1% non-essential amino acids and cryopreserved and stored at −140° C. at a concentration of 7.5-9.5×10^6 cells per vial. Thaw cells and seed at a conc. of around 10000 cells/well in DMEM/F-12 with Glutamax, 10% FCS and 1% non-essential amino acids to a 384-well tissue culture treated plate, […] cell susp/well. The cell plates were then incubated for 7-24 h at 37° C., 5% CO2. The cell medium was removed, followed by addition of 30 μL compound diluted in DMEM/F-12 with Glutamax, 10% FCS, 1% non-essential amino acids and 1% PeSt to a final conc. of 1% DMSO. The compounds were incubated with the cells for 17 h (overnight) at 37° C., 5% CO2. Meso Scale Discovery (MSD) plates were used for the detection of sAPPβ release. MSD sAPPβ plates were blocked in 1% BSA in Tris wash buffer (40 μL/well) for 1 h on shake at r.t. and washed 1 time in Tris wash buffer (40 μL/well). 20 μL of medium was transferred to the pre-blocked and washed MSD sAPPβ microplates, and the cell plates were further used in an ATP assay to measure cytotoxicity. The MSD plates were incubated with shaking at r.t. for 2 h and the media discarded. 10 μL detection antibody was added (1 nM) per well followed by incubation with shaking at r.t. for 2 h and then discarded. 40 μL Read Buffer was added per well and the plates were read in a SECTOR Imager.

human β-Secretase [2] = target: T1, human β-Secretase (Homo sapiens (Human), UniProt P56817); test: Diluted TR-FRET assay; format: biochemical; settings: footnote a: diluted FRET assay, 50 times less enzyme, 6.5 h reaction time at r.t.; read-out: IC50 in TR-FRET assay (IC50 from the diluted FRET assay)
T1 sequence (P56817 22-460): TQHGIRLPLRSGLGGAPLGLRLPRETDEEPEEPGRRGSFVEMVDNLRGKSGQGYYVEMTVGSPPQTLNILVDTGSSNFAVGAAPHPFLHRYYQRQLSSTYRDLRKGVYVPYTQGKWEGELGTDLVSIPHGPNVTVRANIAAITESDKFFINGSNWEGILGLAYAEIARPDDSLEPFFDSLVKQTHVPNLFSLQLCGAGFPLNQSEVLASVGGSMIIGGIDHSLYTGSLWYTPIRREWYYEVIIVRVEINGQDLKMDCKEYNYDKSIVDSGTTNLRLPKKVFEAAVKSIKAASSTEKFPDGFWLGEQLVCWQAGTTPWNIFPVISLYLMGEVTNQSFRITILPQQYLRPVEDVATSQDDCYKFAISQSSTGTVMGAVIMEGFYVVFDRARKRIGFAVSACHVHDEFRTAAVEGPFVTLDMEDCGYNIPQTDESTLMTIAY
Procedure: (§1) The cDNA for the soluble part of the human β-Secretase (AA 1-AA 460) was cloned using the ASP2-Fc10-1-IRES-GFP-neoK mammalian expression vector. The gene was fused to the Fc domain of IgG1 (affinity tag) and stably cloned into HEK 293 cells.
(§2) The enzyme (truncated form) was diluted to 6 μg/mL (stock 1.3 mg/mL) and the TruPoint BACE1 Substrate to 200 nM (stock 120 μM) in reaction buffer (NaAcetate, chaps, triton x-100, EDTA pH4.5). Enzyme and compound in dimethylsulphoxide (final DMSO concentration 5%) was mixed and pre-incubated for 10 minutes at RT. Substrate was then added and the reaction was incubated for 15 minutes at RT. The reaction was stopped with the addition of 0.35 vol Stop solution (NaAcetate, pH 9). The fluorescence of the product was measured on a Victor II plate reader with excitation wavelengths of 340-485 nm and emission wavelengths of 590-615 nm. […] The dimethylsulphoxide control, instead of test compound, defined the 100% activity level and 0% activity was defined by wells lacking enzyme (replaced with reaction buffer) or by a saturating dose of a known inhibitor, 2-amino-6-[3-(3-methoxyphenyl)phenyl]-3,6-dimethyl-5H-pyrimidin-4-one.
Compounds with a high affinity were further tested in a diluted TR-FRET assay, conditions as described above for the TR-FRET assay, but with 50 times less enzyme and a 6.5 h long reaction time at r.t. in the dark.

human β-Secretase [3] = target: T1, human β-Secretase; test: TR-FRET assay; format: biochemical; settings: sBACE-Fc 2.7 μg/ml, substrate 100 nM, pH 4.5, 15 minutes at RT
Procedure: The β-secretase enzyme used in the TR-FRET is prepared as follows:
as §1, §2

COC1CCC2(CCc3ccc(-c4cc(Cl)cc(C#N)c4)cc3C23N=C(C)C(N)=N3)CC1 (single isomer, unassigned; isomer 1) [10, isomer 1]
IC50 [1]: 3.1 nM | IC50 (human β-Secretase [2]): 5.7 nM

CC1=NC2(N=C1N)c1cc(-c3cc(F)cc(C#N)c3)ccc1CCC21CC1 (centres unmarked) [Example 2, 3-(4″-Amino-5″-methyl-3′,4′-dihydrodispiro[cyclopropane-1,2′-naphthalene-1′,2″-imidazol]-7′-yl)-5-fluorobenzonitrile]
IC50 (human β-Secretase [3]): 79 nM | IC50 ([1]; Homo sapiens): 23 nM

CO[C@H]1CC[C@@]2(CCc3ccc(-c4cncc(Cl)c4)cc3C23N=C(C)C(N)=N3)CC1 (single isomer, unassigned; isomer 1) [7, isomer 1]
IC50 [1]: 2.5 nM | IC50 (human β-Secretase [2]): 14 nM

CC#Cc1cncc(-c2ccc3c(c2)C2(N=C(C)C(N)=N2)[C@]2(CC3)CC[C@H](OC)CC2)c1 (single isomer, unassigned; isomer 1) [8, isomer 1]
IC50 (human β-Secretase [3]): 212 nM | IC50 [1]: 81 nM

CO[C@H]1CC[C@]2(CCc3ccc(-c4cncc(Cl)c4)cc3C23N=C(C)C(N)=N3)CC1 (single isomer, unassigned; isomer 2) [7, isomer 2]
IC50 (human β-Secretase [3]): 333 nM | IC50 [1]: 19 nM

CC1=NC2(N=C1N)c1cc(-c3cc(Cl)cc(C#N)c3)ccc1CCC21CC1 (centres unmarked) [Example 9, 3-(4″-Amino-5″-methyl-3′,4′-dihydrodispiro[cyclopropane-1,2′-naphthalene-1′,2″-imidazol]-7′-yl)-5-chlorobenzonitrile]
IC50 ([1]; Homo sapiens): 16 nM | IC50 (human β-Secretase [2]): 15 nM

CC#Cc1cncc(-c2ccc3c(c2)C2(N=C(C)C(N)=N2)[C@]2(CC3)CC[C@@H](OC)CC2)c1 (single isomer, unassigned; isomer 2) [8, isomer 2]
IC50 (human β-Secretase [3]): 19 nM | IC50 [1]: 2.4 nM

CO[C@H]1CC[C@@]2(CCc3ccc(Br)cc3C23N=C(C)C(N)=N3)CC1 (single isomer, unassigned; isomer 1) [5, isomer 1]
IC50 (human β-Secretase [3]): 411 nM | IC50 [1]: 78 nM

COc1cc(C#N)cc(-c2ccc3c(c2)C2(N=C(C)C(N)=N2)[C@]2(CC3)CC[C@@H](OC)CC2)c1 (single isomer, unassigned; isomer 1) [6, isomer 1]
IC50 [1]: 1 nM | IC50 (human β-Secretase [2]): 5 nM

CC1=NC2(N=C1N)c1cc(-c3cncc(Cl)c3)ccc1CCC21CC1 (centres unmarked) [Example 4, 7′-(5-Chloropyridin-3-yl)-5″-methyl-3′,4′-dihydrodispiro[cyclopropane-1,2′-naphthalene-1′,2″-imidazol]-4″-amine]
IC50 ([1]; Homo sapiens): 11 nM

CC1=NC2(N=C1N)c1cc(-c3cc(F)cc(F)c3)ccc1CCC21CC1 (centres unmarked) [Example 3, 7′-(3,5-Difluorophenyl)-5″-methyl-3′,4′-dihydrodispiro[cyclopropane-1,2′-naphthalene-1′,2″-imidazol]-4″-amine]
IC50 (human β-Secretase [3]): 130 nM | IC50 ([1]; Homo sapiens): 118 nM

COc1cc(C#N)cc(-c2ccc3c(c2)C2(N=C(C)C(N)=N2)[C@]2(CC3)CC[C@H](OC)CC2)c1 (single isomer, unassigned; isomer 2) [6, isomer 2]
IC50 (human β-Secretase [3]): 587 nM | IC50 [1]: 80 nM

CO[C@H]1CC[C@@]2(CCc3ccc(-c4cc(Cl)cc(C#N)c4)cc3C23N=C(C)C(N)=N3)CC1 (single isomer, unassigned; isomer 2) [10, isomer 2]
IC50 (human β-Secretase [3]): 392 nM | IC50 [1]: 92 nM

CO[C@H]1CC[C@]2(CCc3ccc(-c4cc(Cl)cc(C#N)c4)cc3C23N=C(C)C(N)=N3)CC1 (single isomer, unassigned; isomer 1) [11, isomer 1]
IC50 [1]: 4.5 nM | IC50 (human β-Secretase [2]): 3.6 nM

CO[C@H]1CC[C@]2(CCc3ccc(Br)cc3C23N=C(C)C(N)=N3)CC1 (single isomer, unassigned; isomer 2) [5, isomer 2]
IC50 (human β-Secretase [3]): 8920 nM

CO[C@H]1CC[C@@]2(CCc3ccc(-c4cc(Cl)cc(C#N)c4)cc3[C@@]23N=C(C)C(N)=N3)CC1 (single isomer, unassigned; isomer 2) [11, isomer 2]
IC50 (human β-Secretase [3]): > 5000 nM

Reference: patent publication US9000184B2, “Cyclohexane-1,2′-naphthalene-1′,2″-imidazol compounds and their use as BACE inhibitors” (AstraZeneca AB, priority 2012, dated 2015)
